Test results taken from patent publication US20260364215A1, “Radiopharmaceutical Compositions Targeting Ephrin Type-A Receptor 2 and Uses Thereof” (PeptiDream Inc., priority 2022, published 2026).
Like-named read-outs stand apart in the source and are kept apart here. Numbered stars: 1 amine (or outer) side, 2 acyl side, 3 side chain; on linkers, the order of the positions; unused ones are H or OH. Bridge positions count the residues as written; N and C are the ends. Square brackets hold non-standard residues; d marks the D form. Side chains are listed from the residue outwards. Peptide text beside a SMILES is read from it. * marks the point of attachment. DOTA(Lu) = O=C1CN2CCN3CCN(CC(=O)*)CCN(CC2)CC(=O)[O][Lu]([O]1)[O]C(=O)C3; NH(1-deoxy-D-glucityl) = OC[C@@H](O)[C@@H](O)[C@H](O)[C@@H](O)CN*; DOTA = O=C(O)CN1CCN(CC(=O)O)CCN(CC(=O)*)CCN(CC(=O)O)CC1; Trp(1-Me,7-Cl) = Cn1cc(C[C@H](N)C(=O)O)c2cccc(Cl)c21; dPhe(3-CONH2) = NC(=O)c1cccc(C[C@@H](N)C(=O)O)c1; Piperazinyl(4-CH2COOH) = O=C(O)CN1CCN(*)CC1; Trp(1-Me) = Cn1cc(C[C@H](N)C(=O)O)c2ccccc21; PEG8 = NCCOCCOCCOCCOCCOCCOCCOCCOCCC(=O)O; d(tBuAla) = CC(C)(C)C[C@@H](N)C(=O)O; NMe3Pal = CN[C@@H](Cc1cccnc1)C(=O)O; NMeF = CN[C@@H](Cc1ccccc1)C(=O)O; Gly(cBu) = N[C@H](C(=O)O)C1CCC1; NMeE = CN[C@@H](CCC(=O)O)C(=O)O; Aad = N[C@@H](CCCC(=O)O)C(=O)O; NMeN = CN[C@@H](CC(N)=O)C(=O)O; PEG2 = NCCOCCOCCC(=O)O; CO = O=C([*:1])[*:2]; βAla = NCCC(=O)O

Molecular target: T1, Recombinant Human EphA2 Fc Protein (Homo sapiens, UniProt P29317)
T1 construct: purchased Elabscience
T1 sequence (P29317 24-534 limits assumed): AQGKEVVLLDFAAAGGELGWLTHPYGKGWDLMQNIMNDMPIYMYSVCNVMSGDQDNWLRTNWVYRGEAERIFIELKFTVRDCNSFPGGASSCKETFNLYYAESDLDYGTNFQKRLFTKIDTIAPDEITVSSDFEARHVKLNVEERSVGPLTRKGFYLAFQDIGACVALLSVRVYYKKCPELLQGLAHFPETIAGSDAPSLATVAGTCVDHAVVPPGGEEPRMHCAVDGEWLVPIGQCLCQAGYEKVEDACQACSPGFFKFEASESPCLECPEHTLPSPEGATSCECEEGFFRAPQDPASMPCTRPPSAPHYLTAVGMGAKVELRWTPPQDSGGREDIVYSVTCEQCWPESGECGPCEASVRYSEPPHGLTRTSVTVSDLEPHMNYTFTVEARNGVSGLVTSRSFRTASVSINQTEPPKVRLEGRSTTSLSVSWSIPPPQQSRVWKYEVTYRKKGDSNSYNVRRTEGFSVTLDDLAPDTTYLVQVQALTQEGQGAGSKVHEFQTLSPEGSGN
Assay: Interaction analysis (kinetics, KD) of peptides and conjugates against EphA2 by SPR, Biacore T200, single-cycle kinetics (Examples B15 and B22)
Assay type: binding
Method: Example B15. Interaction Analysis by SPR was Performed Using Biacore (Cytiva)
SPR assay was performed using Biacore T200 (Cytiva).
The HBS-P+ buffer (10 mM HEPES (pH7.4), 150 mM NaCl, 0.05% (v/v) Surfactant P20) containing 1% DMSO was used as running buffer. Recombinant Human EphA2 Fc Protein (Fc tag, Elabscience) was captured by Human Antibody Capture kit (Cytiva). Peptide samples in DMSO were diluted with running buffer, and prepared five serial dilutions. Using these serial dilutions, kinetics of peptides against EphA2 was measured at a flow rate of […] at 25 °C. The method adopted for sample measurement was a single-cycle kinetics method. The analysis was conducted using the evaluation software 3.0 provided with Biacore T200. Kinetics fitting was done on the difference data obtained by subtracting the baseline data from sample measurement data. KD values were calculated based on the association rate constant (ka) and dissociation rate constant (kd).
Example B22: Interaction Analysis of Conjugates by SPR was Performed Using Biacore (Cytiva)
SPR assay was performed using Biacore T200 (Cytiva) according to Example B15.

[1] = conjugates, Biacore T200 according to Example B15, Table B16, read-out: SPR Kd

SMILES | Kd [nM] | other results
CC(C)C[C@@H]1NC(=O)[C@H](CC(N)=O)NC(=O)[C@H](Cc2cccnc2)N(C)C(=O)[C@@H](C)NC(=O)CSC[C@@H](C(N)=O)NC(=O)[C@H](CCCC(N)=O)NC(=O)[C@H]([C@@H](C)O)NC(=O)[C@H](Cc2cn(C)c3ccccc23)NC(=O)[C@H](CCCCNC(=O)N2CCN(CC(=O)O)CC2)NC(=O)[C@H](Cc2cn(C)c3c(Cl)cccc23)NC(=O)[C@H](CCC(=O)O)N(C)C(=O)[C@H](CCCCNC(=O)CN2CCN3CCN4CCN(CC2)CC(=O)[O][Lu]([O]C(=O)C3)[O]C(=O)C4)NC1=O [PDC_EphA2-00026631] ({CH2CO}-[dA][NMe3Pal]NLK(DOTA(Lu))[NMeE][Trp(1-Me,7-Cl)]K([CO-Piperazinyl(4-CH2COOH)])[Trp(1-Me)]T[Aad](NH2)C-NH2; thioether N-12) | < 1 | 
C[C@H]1NC(=O)CSC[C@@H](C(=O)N[C@H](CCC(=O)O)C(N)=O)NC(=O)[C@H](CCCC(N)=O)NC(=O)[C@H]([C@@H](C)O)NC(=O)[C@H](Cc2cn(C)c3ccccc23)NC(=O)[C@H](CCCCNC(=O)N2CCN(CC(=O)O)CC2)NC(=O)[C@H](Cc2cn(C)c3c(Cl)cccc23)NC(=O)[C@H](CCC(=O)O)N(C)C(=O)[C@H](CCCCNC(=O)[C@@H](CC(C)(C)C)NC(=O)CN2CCN3CCN4CCN(CC2)CC(=O)[O][Lu]([O]C(=O)C3)[O]C(=O)C4)NC(=O)[C@H](C2CCC2)NC(=O)[C@H](CC(N)=O)NC(=O)[C@H](Cc2cccnc2)N(C)C1=O [PDC_EphA2-00027130] ({CH2CO}-[dA][NMe3Pal]N[Gly(cBu)]K([d(tBuAla)-DOTA(Lu)])[NMeE][Trp(1-Me,7-Cl)]K([CO-Piperazinyl(4-CH2COOH)])[Trp(1-Me)]T[Aad](NH2)C[dE]-NH2; thioether N-12) | < 1 | 
C[C@@H](O)[C@@H]1NC(=O)[C@H](Cc2cn(C)c3ccccc23)NC(=O)[C@H](CCCCNC(=O)N2CCN(CC(=O)O)CC2)NC(=O)[C@H](Cc2cn(C)c3c(Cl)cccc23)NC(=O)[C@H](CCC(=O)O)N(C)C(=O)[C@H](CCCCNC(=O)CN2CCN(CC(=O)O)CCN(CC(=O)O)CCN(CC(=O)O)CC2)NC(=O)[C@H](C2CCC2)NC(=O)[C@H](CC(N)=O)NC(=O)[C@H](Cc2cccnc2)N(C)C(=O)[C@@H](Cc2cccc(C(N)=O)c2)NC(=O)CSC[C@@H](C(=O)N[C@H](CCC(=O)O)C(=O)O)NC(=O)[C@H](CCCC(N)=O)NC1=O.[Lu+3] [PDC_EphA2-00027104] ({CH2CO}-[dPhe(3-CONH2)][NMe3Pal]N[Gly(cBu)]K(DOTA)[NMeE][Trp(1-Me,7-Cl)]K([CO-Piperazinyl(4-CH2COOH)])[Trp(1-Me)]T[Aad](NH2)C[dE]-OH; thioether N-12) |  | Kd [1]: < 1 nM
CC(=O)NCCCC[C@@H](NC(=O)CCNC(=O)[C@@H]1CSCC(=O)N[C@H](C)C(=O)N(C)[C@@H](Cc2cccnc2)C(=O)N[C@@H](CC(N)=O)C(=O)N[C@@H](CC(C)C)C(=O)N[C@@H](CCCC(=O)O)C(=O)N(C)[C@@H](Cc2ccccc2)C(=O)N[C@@H](Cc2cn(C)c3ccccc23)C(=O)N[C@@H](C(C)C)C(=O)N[C@@H](Cc2cn(C)c3ccccc23)C(=O)N[C@@H]([C@@H](C)O)C(=O)N[C@@H](CCC(=O)O)C(=O)N1)C(N)=O [PDC_EphA2-00008083] ({CH2CO}-[dA][NMe3Pal]NL[Aad][NMeF][Trp(1-Me)]V[Trp(1-Me)]TEC[βAla][dK](Ac)-NH2; thioether N-12) |  | Kd (peptides, Biacore T200, 25 °C, Table B12, read-out: SPR Kd): < 1 nM
CC(C)C[C@@H]1NC(=O)[C@H](CC(N)=O)NC(=O)[C@H](Cc2cccnc2)N(C)C(=O)[C@@H](C)NC(=O)CSC[C@@H](C(=O)NCCC(=O)N[C@H](CCCCNC(=O)CCOCCOCCNC(=O)CCOCCOCCOCCOCCOCCOCCOCCOCCNC(=O)CN2CCN(CC(=O)O)CCN(CC(=O)O)CCN(CC(=O)O)CC2)C(N)=O)NC(=O)[C@H](CCCC(N)=O)NC(=O)[C@H]([C@@H](C)O)NC(=O)[C@H](Cc2cn(C)c3ccccc23)NC(=O)[C@H](CCCCNC(=O)N2CCN(CC(=O)O)CC2)NC(=O)[C@H](Cc2cn(C)c3ccccc23)NC(=O)[C@H](CCC(=O)O)N(C)C(=O)[C@H](CCCC(=O)O)NC1=O.[Lu+3] [PDC_EphA2-00008094-C304] ({CH2CO}-[dA][NMe3Pal]NL[Aad][NMeE][Trp(1-Me)]K([CO-Piperazinyl(4-CH2COOH)])[Trp(1-Me)]T[Aad](NH2)C[βAla][dK]([PEG2-PEG8-DOTA])-NH2; thioether N-12) |  | Kd [1]: < 1 nM
C[C@H]1NC(=O)CSC[C@@H](C(=O)N[C@H](CCCCNC(=O)CN2CCN3CCN4CCN(CC2)CC(=O)[O][Lu]([O]C(=O)C3)[O]C(=O)C4)C(N)=O)NC(=O)[C@H](CCCC(N)=O)NC(=O)[C@H]([C@@H](C)O)NC(=O)[C@H](Cc2cn(C)c3ccccc23)NC(=O)[C@H](CCC(=O)NC[C@H](O)[C@@H](O)[C@H](O)[C@H](O)CO)NC(=O)[C@H](Cc2cn(C)c3ccccc23)NC(=O)[C@H](Cc2cccnc2)N(C)C(=O)[C@H](CCCC(N)=O)NC(=O)[C@H](C2CCC2)NC(=O)[C@H](CC(N)=O)NC(=O)[C@H](Cc2ccccc2)N(C)C1=O [PDC_EphA2-00013704-C302] ({CH2CO}-[dA][NMeF]N[Gly(cBu)][Aad](NH2)[NMe3Pal][Trp(1-Me)]E(NH(1-deoxy-D-glucityl))[Trp(1-Me)]T[Aad](NH2)C[dK](DOTA(Lu))-NH2; thioether N-12) | < 1 | 
CN1C(=O)[C@H](CCC(=O)NC[C@H](O)[C@@H](O)[C@H](O)[C@H](O)CO)NC(=O)[C@H](C2CCC2)NC(=O)[C@H](CC(N)=O)NC(=O)[C@H](Cc2cccnc2)N(C)C(=O)[C@@H](Cc2cccc(C(N)=O)c2)NC(=O)CSC[C@@H](C(=O)N[C@@H](CCCCNC(=O)CN2CCN3CCN4CCN(CC2)CC(=O)[O][Lu]([O]C(=O)C3)[O]C(=O)C4)C(N)=O)NC(=O)[C@H](Cc2cn(C)c3ccccc23)NC(=O)[C@H](CCC(=O)NC[C@H](O)[C@@H](O)[C@H](O)[C@H](O)CO)NC(=O)[C@H](Cc2cn(C)c3c(Cl)cccc23)NC(=O)[C@@H]1Cc1cccnc1 [PDC_EphA2-00026604-C301] ({CH2CO}-[dPhe(3-CONH2)][NMe3Pal]N[Gly(cBu)]E(NH(1-deoxy-D-glucityl))[NMe3Pal][Trp(1-Me,7-Cl)]E(NH(1-deoxy-D-glucityl))[Trp(1-Me)]CK(DOTA(Lu))-NH2; thioether N-10) | < 1 | 
C[C@@H](O)[C@@H]1NC(=O)[C@H](Cc2cn(C)c3ccccc23)NC(=O)[C@H](CCC(=O)NC[C@H](O)[C@@H](O)[C@H](O)[C@H](O)CO)NC(=O)[C@H](Cc2cn(C)c3ccccc23)NC(=O)[C@H](CC(N)=O)N(C)C(=O)[C@H](CCCC(N)=O)NC(=O)[C@H](C2CCC2)NC(=O)[C@H](CC(N)=O)NC(=O)[C@H](Cc2cccnc2)N(C)C(=O)[C@@H](Cc2cccc(C(N)=O)c2)NC(=O)CSC[C@@H](C(=O)N[C@H](CCCCNC(=O)CN2CCN3CCN4CCN(CC2)CC(=O)[O][Lu]([O]C(=O)C3)[O]C(=O)C4)C(N)=O)NC(=O)[C@H](CCCC(N)=O)NC1=O [PDC_EphA2-00022595-C302] ({CH2CO}-[dPhe(3-CONH2)][NMe3Pal]N[Gly(cBu)][Aad](NH2)[NMeN][Trp(1-Me)]E(NH(1-deoxy-D-glucityl))[Trp(1-Me)]T[Aad](NH2)C[dK](DOTA(Lu))-NH2; thioether N-12) | < 1 | 
